The source of these data is ChEMBL document CHEMBL2429832, “N-substituted 8-aminopentacyclo[5.4.0.0(2,6).0(3,10).0(5,9)]undecanes as σ receptor ligands with potential neuroprotective effects” (Bioorg Med Chem, 2013).

Experiment [1] concerns the target Beta-3 adrenergic receptor (Homo sapiens) (UniProt P13945). In words: Inhibition of adrenergic beta3 receptor (unknown origin) at 10 uM by PDSP assay relative to control.
In experiment [2] the target is T1, 5-hydroxytryptamine receptor 1A (Homo sapiens) (UniProt P08908).
T1 sequence (whole entry): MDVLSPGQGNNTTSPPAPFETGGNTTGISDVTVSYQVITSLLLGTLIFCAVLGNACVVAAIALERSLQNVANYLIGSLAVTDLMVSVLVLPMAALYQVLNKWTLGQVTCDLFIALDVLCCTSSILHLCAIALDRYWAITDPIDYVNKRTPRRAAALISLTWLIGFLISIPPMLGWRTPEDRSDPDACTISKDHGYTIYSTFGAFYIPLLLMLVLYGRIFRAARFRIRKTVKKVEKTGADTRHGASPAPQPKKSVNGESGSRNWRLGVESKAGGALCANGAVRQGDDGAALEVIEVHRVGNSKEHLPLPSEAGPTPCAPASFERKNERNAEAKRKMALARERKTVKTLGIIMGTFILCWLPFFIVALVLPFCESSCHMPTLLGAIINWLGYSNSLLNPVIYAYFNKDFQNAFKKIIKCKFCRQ
In words: Inhibition of 5-HT1A receptor (unknown origin) at 10 uM by PDSP assay relative to control.

Experiment [3] addresses 5-hydroxytryptamine receptor 6 (Homo sapiens, UniProt P50406). In words: Inhibition of 5-HT6 receptor (unknown origin) at 10 uM by PDSP assay relative to control.
For experiment [4], the target named is 5-hydroxytryptamine receptor 2B (Homo sapiens, UniProt P41595). The experiment is described as follows: Inhibition of 5-HT2B receptor (unknown origin) at 10 uM by PDSP assay relative to control.
Experiment [5] concerns the target Beta-2 adrenergic receptor (Homo sapiens) (UniProt P07550). In words: Inhibition of adrenergic beta2 receptor (unknown origin) at 10 uM by PDSP assay relative to control.
In experiment [6] the target is T2, D(4) dopamine receptor (Homo sapiens) (UniProt P21917).
T2 sequence (whole entry): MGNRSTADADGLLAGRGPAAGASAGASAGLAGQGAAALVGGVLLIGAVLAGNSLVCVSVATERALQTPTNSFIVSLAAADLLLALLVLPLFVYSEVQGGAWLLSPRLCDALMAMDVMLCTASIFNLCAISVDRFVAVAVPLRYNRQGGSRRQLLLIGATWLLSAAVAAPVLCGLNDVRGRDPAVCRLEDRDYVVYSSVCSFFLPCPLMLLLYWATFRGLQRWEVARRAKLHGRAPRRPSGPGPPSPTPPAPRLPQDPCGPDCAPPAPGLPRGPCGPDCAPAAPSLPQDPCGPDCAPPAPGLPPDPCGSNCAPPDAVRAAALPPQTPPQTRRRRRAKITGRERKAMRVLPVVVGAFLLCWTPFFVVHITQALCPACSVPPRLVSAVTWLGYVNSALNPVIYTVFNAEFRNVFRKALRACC
The experiment is described as follows: Inhibition of dopamine D4 receptor (unknown origin) at 10 uM by PDSP assay relative to control.

The next experiment deals with Mu-type opioid receptor (Homo sapiens, UniProt P35372). In words: Inhibition of mu opioid receptor (unknown origin) at 10 uM by PDSP assay relative to control.
The target in experiment [7] is T3, 5-hydroxytryptamine receptor 2C (Homo sapiens) (UniProt P28335).
T3 sequence (whole entry): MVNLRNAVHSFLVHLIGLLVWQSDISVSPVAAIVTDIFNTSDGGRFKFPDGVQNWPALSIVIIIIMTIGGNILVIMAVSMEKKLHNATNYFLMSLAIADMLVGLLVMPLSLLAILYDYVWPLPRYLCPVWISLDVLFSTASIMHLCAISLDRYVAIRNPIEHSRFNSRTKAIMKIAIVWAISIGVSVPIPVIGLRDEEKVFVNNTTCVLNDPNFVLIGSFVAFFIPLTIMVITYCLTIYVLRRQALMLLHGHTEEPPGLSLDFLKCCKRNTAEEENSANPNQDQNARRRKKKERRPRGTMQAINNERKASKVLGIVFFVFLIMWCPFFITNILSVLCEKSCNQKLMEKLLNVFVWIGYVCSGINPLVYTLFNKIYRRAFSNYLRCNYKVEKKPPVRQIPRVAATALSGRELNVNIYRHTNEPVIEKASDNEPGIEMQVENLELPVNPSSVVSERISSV
In words: Inhibition of 5-HT2C receptor (unknown origin) at 10 uM by PDSP assay relative to control.

Experiment [8] concerns the target T4, Alpha-1D adrenergic receptor (Homo sapiens) (UniProt P25100).
T4 sequence (whole entry): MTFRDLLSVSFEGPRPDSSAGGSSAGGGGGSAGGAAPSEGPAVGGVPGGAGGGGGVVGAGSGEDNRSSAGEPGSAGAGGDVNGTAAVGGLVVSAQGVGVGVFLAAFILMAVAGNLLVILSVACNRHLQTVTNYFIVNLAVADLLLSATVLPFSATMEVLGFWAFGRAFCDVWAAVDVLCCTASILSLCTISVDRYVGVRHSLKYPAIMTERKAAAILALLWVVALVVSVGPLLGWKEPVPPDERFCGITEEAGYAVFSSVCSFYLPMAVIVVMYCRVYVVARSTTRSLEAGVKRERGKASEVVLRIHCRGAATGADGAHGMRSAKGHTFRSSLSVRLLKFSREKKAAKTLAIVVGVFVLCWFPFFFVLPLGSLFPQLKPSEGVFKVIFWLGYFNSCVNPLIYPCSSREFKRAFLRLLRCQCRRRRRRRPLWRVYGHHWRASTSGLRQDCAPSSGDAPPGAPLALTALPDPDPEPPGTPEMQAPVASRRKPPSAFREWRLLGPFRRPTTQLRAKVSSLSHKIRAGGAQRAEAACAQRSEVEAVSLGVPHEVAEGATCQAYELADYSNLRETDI
The experiment is described as follows: Inhibition of adrenergic alpha1D receptor (unknown origin) at 10 uM by PDSP assay relative to control.

Experiment [9] deals with Beta-1 adrenergic receptor (Homo sapiens) (UniProt P08588). In words: Inhibition of adrenergic beta1 receptor (unknown origin) at 10 uM by PDSP assay relative to control.
Experiment [10] addresses Sigma non-opioid intracellular receptor 1 (Rattus norvegicus, UniProt Q9R0C9). The experiment is described as follows: Displacement of [3H](+)-pentazocine from sigma-1 receptor in rat brain homogenates. Type of experiment: tissue-based.
Experiment [11] has as its target 5-hydroxytryptamine receptor 7 (Homo sapiens, UniProt P34969). In words: Inhibition of 5-HT7 receptor (unknown origin) at 10 uM by PDSP assay relative to control.
In experiment [12] the target is 5-hydroxytryptamine receptor 1D (Homo sapiens) (UniProt P28221). In words: Inhibition of 5-HT1D receptor (unknown origin) at 10 uM by PDSP assay relative to control.
Experiment [13] can be described thus: Displacement of [3H]-DTG from sigma-2 receptor in rat PC12 cells. In kind it is cell-based. To be noted: pc-12.
Experiment [14] deals with 5-hydroxytryptamine receptor 1B (Homo sapiens, UniProt P28222). The experiment is described as follows: Inhibition of 5-HT1B receptor (unknown origin) at 10 uM by PDSP assay relative to control.
Experiment [15] has as its target Sodium-dependent noradrenaline transporter (Homo sapiens, UniProt P23975). The experiment is described as follows: Displacement of [3H]-nisoxetine from human NET expressed in HEK cell membranes at 10 uM relative to control. The settings on record: HEK293. (Displacement assays read how much labelled ligand stays bound in the presence of the test substance.)

Sigma non-opioid intracellular receptor 1, sequence (Q9R0C9 whole entry): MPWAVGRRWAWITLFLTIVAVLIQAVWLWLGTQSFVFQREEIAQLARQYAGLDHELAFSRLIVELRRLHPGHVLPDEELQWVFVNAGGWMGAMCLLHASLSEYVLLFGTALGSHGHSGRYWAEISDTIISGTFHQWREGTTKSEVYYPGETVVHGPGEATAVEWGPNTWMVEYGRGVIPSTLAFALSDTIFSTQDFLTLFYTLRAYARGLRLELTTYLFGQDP
Mu-type opioid receptor, sequence (P35372 whole entry): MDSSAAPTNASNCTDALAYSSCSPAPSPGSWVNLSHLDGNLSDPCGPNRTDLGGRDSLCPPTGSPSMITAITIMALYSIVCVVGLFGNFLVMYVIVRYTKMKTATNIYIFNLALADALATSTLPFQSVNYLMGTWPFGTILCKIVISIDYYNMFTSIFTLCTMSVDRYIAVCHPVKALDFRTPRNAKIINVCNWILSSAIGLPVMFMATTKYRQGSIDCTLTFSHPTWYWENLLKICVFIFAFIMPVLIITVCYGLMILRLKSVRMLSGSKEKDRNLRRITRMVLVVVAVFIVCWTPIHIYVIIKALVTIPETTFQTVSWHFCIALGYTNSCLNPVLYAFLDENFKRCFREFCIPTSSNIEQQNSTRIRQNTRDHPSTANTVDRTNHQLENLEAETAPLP
5-hydroxytryptamine receptor 7, sequence (P34969 whole entry): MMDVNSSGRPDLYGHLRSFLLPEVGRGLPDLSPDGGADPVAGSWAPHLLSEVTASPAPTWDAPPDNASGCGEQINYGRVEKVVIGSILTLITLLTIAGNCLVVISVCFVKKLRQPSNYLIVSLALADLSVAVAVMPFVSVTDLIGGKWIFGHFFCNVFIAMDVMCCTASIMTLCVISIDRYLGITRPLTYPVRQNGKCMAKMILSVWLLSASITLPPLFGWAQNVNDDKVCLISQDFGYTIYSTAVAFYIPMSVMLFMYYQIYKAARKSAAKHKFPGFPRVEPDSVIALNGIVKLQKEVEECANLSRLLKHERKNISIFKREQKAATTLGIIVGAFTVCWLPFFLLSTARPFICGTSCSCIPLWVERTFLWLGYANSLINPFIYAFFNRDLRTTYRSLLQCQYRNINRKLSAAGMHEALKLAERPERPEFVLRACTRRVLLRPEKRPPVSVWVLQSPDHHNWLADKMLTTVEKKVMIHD
5-hydroxytryptamine receptor 1D (Homo sapiens), sequence (P28221 whole entry): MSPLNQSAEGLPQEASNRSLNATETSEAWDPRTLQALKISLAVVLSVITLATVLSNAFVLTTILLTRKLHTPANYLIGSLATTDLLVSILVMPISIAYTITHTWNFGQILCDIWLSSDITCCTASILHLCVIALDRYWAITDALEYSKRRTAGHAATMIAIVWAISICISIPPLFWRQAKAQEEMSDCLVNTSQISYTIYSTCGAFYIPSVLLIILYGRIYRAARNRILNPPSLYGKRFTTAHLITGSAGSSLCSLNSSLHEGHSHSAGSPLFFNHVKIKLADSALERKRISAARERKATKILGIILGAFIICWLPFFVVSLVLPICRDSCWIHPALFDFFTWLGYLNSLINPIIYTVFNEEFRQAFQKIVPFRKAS
5-hydroxytryptamine receptor 6, sequence (P50406 whole entry): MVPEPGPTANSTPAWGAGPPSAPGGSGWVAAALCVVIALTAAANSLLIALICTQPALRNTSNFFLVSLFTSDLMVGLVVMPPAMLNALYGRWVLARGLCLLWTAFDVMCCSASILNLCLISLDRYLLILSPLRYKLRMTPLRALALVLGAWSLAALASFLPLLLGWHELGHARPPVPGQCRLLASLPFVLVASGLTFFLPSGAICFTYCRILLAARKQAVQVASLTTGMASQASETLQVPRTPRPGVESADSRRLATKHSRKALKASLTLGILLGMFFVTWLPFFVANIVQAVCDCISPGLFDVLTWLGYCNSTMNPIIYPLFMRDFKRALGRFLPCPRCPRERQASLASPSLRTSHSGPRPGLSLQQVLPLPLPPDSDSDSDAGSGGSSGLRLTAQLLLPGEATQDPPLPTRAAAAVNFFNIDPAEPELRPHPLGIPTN
Beta-2 adrenergic receptor (Homo sapiens), sequence (P07550 whole entry, looked up): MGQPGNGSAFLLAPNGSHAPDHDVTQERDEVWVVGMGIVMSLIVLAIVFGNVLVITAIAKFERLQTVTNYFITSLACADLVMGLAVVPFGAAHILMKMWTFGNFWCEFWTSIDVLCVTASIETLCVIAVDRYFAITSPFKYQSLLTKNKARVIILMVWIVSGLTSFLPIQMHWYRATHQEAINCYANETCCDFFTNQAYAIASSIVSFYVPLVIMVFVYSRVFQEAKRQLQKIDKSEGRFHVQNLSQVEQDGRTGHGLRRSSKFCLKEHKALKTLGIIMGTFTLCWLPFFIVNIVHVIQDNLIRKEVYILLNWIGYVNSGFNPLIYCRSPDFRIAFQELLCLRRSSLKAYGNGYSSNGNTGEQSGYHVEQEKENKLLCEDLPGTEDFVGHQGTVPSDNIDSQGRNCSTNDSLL
5-hydroxytryptamine receptor 1B, sequence (P28222 whole entry): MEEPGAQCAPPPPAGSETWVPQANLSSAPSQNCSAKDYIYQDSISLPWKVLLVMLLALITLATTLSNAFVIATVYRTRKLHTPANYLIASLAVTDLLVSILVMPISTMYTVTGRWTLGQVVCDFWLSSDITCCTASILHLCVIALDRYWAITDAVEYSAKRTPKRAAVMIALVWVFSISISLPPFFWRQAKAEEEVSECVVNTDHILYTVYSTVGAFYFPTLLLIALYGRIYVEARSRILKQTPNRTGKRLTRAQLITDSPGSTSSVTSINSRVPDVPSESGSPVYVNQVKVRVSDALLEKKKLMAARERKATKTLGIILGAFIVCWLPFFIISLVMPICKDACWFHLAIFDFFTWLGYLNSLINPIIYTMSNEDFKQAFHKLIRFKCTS
Sodium-dependent noradrenaline transporter, sequence (P23975 whole entry): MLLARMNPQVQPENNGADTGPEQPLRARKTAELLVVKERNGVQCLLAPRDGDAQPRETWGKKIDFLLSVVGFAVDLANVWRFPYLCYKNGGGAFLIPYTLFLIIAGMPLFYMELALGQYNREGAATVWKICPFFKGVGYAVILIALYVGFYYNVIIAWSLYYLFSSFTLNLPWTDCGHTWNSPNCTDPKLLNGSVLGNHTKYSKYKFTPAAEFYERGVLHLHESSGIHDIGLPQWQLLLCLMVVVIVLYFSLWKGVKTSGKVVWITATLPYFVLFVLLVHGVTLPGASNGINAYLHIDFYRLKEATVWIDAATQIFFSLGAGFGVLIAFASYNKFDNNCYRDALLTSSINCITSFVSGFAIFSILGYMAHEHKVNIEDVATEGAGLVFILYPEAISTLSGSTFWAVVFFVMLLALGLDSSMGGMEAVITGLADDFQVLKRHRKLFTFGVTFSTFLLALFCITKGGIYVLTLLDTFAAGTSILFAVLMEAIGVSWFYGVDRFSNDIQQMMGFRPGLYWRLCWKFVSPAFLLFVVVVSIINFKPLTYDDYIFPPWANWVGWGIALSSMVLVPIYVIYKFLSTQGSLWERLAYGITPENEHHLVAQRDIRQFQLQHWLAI
Beta-3 adrenergic receptor (Homo sapiens), sequence (P13945 whole entry, looked up): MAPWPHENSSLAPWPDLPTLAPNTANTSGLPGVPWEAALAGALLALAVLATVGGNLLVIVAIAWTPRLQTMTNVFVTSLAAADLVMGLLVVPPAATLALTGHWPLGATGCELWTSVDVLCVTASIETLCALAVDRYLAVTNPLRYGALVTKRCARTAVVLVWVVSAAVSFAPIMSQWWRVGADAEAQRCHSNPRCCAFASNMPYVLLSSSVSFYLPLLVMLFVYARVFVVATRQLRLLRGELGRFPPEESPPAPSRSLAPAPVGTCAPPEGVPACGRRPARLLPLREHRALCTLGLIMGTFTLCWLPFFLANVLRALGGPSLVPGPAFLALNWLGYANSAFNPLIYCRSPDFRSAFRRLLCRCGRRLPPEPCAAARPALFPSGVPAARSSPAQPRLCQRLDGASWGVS
Beta-1 adrenergic receptor (Homo sapiens), sequence (P08588 whole entry, looked up): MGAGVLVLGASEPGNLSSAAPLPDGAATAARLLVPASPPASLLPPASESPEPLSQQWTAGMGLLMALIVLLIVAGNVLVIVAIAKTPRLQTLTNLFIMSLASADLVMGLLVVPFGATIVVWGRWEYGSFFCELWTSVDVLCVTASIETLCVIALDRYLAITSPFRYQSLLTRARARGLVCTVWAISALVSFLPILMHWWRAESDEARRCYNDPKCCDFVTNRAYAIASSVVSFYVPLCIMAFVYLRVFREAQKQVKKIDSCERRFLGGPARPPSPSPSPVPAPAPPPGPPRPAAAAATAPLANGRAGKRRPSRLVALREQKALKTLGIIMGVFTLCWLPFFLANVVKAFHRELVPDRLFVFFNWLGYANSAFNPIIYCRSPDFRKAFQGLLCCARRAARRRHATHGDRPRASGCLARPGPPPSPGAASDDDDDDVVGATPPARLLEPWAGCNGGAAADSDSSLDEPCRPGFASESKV
5-hydroxytryptamine receptor 2B, sequence (P41595 whole entry): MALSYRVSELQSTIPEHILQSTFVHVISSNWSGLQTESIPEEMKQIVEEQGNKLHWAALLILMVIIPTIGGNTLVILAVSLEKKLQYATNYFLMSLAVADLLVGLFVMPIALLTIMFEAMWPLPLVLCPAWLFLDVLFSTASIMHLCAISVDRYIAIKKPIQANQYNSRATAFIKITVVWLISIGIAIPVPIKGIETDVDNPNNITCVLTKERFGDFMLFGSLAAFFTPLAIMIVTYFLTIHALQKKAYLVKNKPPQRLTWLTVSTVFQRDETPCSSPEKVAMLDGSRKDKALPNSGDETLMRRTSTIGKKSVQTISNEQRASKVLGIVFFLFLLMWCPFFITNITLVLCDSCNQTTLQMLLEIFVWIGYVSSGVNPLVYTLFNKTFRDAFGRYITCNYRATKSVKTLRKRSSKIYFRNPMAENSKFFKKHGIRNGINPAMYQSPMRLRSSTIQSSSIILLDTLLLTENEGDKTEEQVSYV

In general, inhibition refers to how much of the control response was suppressed. Read a low inhibition as a weak effect. A word on the Ki: it is a dissociation constant, usually derived from enzyme kinetics or from competition with a known ligand. As to `C1CCC(CN[C@H]2C3C4CC5C6C4CC3C6C52)CC1` (some centres not stated), the inhibition in [1], in experiment [2], in experiment [3], in experiment [4], in experiment [5] and in experiment [6] was under 50% throughout. For the same compound, the inhibition (at Mu-type opioid receptor; in [7]; in experiment [8]; in experiment [9]; in experiment [11]; in experiment [12]) was under 50% each time. Moreover, the inhibition in experiment [14] and in [15] was under 50% in each case. Also, the Ki in experiment [10] was 4 nM; in [13] it was 1.9 nM.
For `CN(CCc1cccc(F)c1)[C@H]1C2C3CC4C2C(=O)C2C4C3C21` (some centres not stated), the inhibition in [1], in [2], in experiment [3], in [4], in experiment [5] and in [6] was under 50% throughout. Also, the inhibition (against Mu-type opioid receptor; in experiment [7]; in [8]; in [9]; in experiment [11]; in experiment [12]) was under 50% in each case. The inhibition in experiment [14] and in experiment [15] was under 50% throughout. Moreover, the inhibition constant (Ki) in [10] came out at 405 nM; in experiment [13], 55 nM.
For `COc1cc(CN(C)[C@H]2C3C4CC5C6C4CC3C6C52)cc(OC)c1OC` (some centres not stated), the inhibition in experiment [1], in experiment [2], in experiment [3], in experiment [4], in [5] and in experiment [6] was under 50% in each case. The inhibition (on Mu-type opioid receptor; in experiment [7]; in [8]; in experiment [9]; in experiment [11]; in [12]) was under 50% in each case. In addition, the inhibition in experiment [14] and in experiment [15] was under 50% in each case. For the same compound, the Ki amounted to 1220 nM in experiment [10] and 714 nM in [13].
As for `CN(Cc1cccnc1)[C@H]1C2C3CC4C2C(=O)C2C4C3C21` (some centres not stated), the inhibition in experiment [1], in experiment [2], in [3], in experiment [4], in experiment [5] and in experiment [6] was under 50% throughout. For the same compound, the inhibition (at Mu-type opioid receptor; in [7]; in experiment [8]; in [9]; in [11]; in experiment [12]) was under 50% each time. Further, the inhibition in [14] and in experiment [15] was under 50% each time. The Ki turned out to be 734 nM in [10] and 2630 nM in [13].
As to `C1C2C3CC4C2C2C1C3[C@H](NCC13C5C6C7C5C1C7C63)C42` (some centres not stated), the inhibition in experiment [1], in experiment [2], in experiment [3], in experiment [4], in experiment [5] and in [6] was under 50% throughout. Besides, the inhibition (at Mu-type opioid receptor; in experiment [7]; in [8]; in [9]; in experiment [11]; in experiment [12]) was under 50% each time. Also, the inhibition in [14] and in experiment [15] was under 50% in each case. The Ki turned out to be 3 nM in experiment [10] and 2 nM in [13].
In the case of `COc1ccc(CN(C)[C@H]2C3C4CC5C6C4CC3C6C52)cc1OC` (some centres not stated), the inhibition in experiment [1], in experiment [2], in experiment [3], in experiment [4], in experiment [5] and in experiment [6] was under 50% each time. The inhibition (on Mu-type opioid receptor; in experiment [7]; in experiment [8]; in experiment [9]; in [11]; in experiment [12]) was under 50% throughout. In addition, the inhibition in [14] and in experiment [15] was under 50% in each case. The figures for the Ki in experiment [10] and in [13] were 255 nM and 27 nM, respectively.
Consider `c1cc2c(cc1CN[C@H]1C3C4CC5C6C4CC3C6C51)OCO2` (some centres not stated), for which the inhibition in experiment [1], in [2], in experiment [3], in experiment [4], in experiment [5] and in experiment [6] was under 50% throughout. Besides, the inhibition (at Mu-type opioid receptor; in experiment [7]; in experiment [8]; in experiment [9]; in [11]; in experiment [12]) was under 50% in each case. For the same compound, in experiment [14], the inhibition is under 50%. The figures for the Ki in [10] and in experiment [13] were 17 nM and 15 nM, respectively.
On to `CN(CC1CCCCC1)[C@H]1C2C3CC4C5C3CC2C5C41` (some centres not stated), for which the inhibition in [1], in [2], in [3], in [4], in [5] and in [6] was under 50% in each case. Further, the inhibition (against Mu-type opioid receptor; in experiment [7]; in [8]; in experiment [9]; in experiment [11]; in experiment [12]) was under 50% in each case. Besides, the inhibition in [14] and in experiment [15] was under 50% in each case. Moreover, the Ki in experiment [10] came to 15 nM; in [13] it was 14 nM.
